According to patent US9420781B1, “Agrochemical adjuvant concentrate for herbicides” (LAMBERTI SpA, priority 2015, dated 2016):

Assays:
Test in all cases: Herbicidal Effectiveness Test
Assay type in all cases: in vivo
Details in all cases: tank mix with Roundup PM 11 fl oz/a, Clarity 6 fl oz/a
AMASS Amaranth = test system: AMASS Amaranth
Method: (§1) 4 diluted sprayable herbicide tank mixes were prepared using water with an hardness of 1000 ppm, 0.25% v/v of NIS and the adjuvant concentrates of Example 1 and 3-5.
(§2) For comparative purpose, two other diluted herbicide sprayable tank mixes with two different adjuvants, AMS and DPK 50, were prepared.
(§3) The formulations contained, as herbicides, Roundup® PM for an application rate of 11 fl oz/a (803 ml/h) and Clarity® for an application rate of 6 fl oz/a (438 ml/h).
(§4) The formulation were applied on a multispecies system.
(§5) The herbicidal performances were evaluated by awarding scores to the treated plants in comparison to untreated control plants. The evaluation scale ranges from 0% to 100% herbicidal activity. 100% activity means the complete death at least of those parts of the plant that are above ground.
(§6) The results 14 and 28 days after the treatment are reported in the following Table 3 and Table 4 respectively.

HELSS Sunflower = test system: HELSS Sunflower
Method: as §1, §2, §3, §4, §5, §6

LIUSS Flax = test system: LIUSS Flax
Method: as §1, §2, §3, §4, §5, §6

ZEAMX Corn = test system: ZEAMX Corn
Method: as §1, §2, §3, §4, §5, §6

[1] = 14 days after treatment, adjuvant 8.5 lb/100 gal, 0.25% v/v NIS, water hardness 1000 ppm
[2] = 14 days after treatment, adjuvant 17 lb/100 gal, 0.25% v/v NIS, water hardness 1000 ppm
[3] = 28 days after treatment, adjuvant 8.5 lb/100 gal
[4] = 28 days after treatment, adjuvant 17 lb/100 gal

N.N.O=S(=O)(O)O [AMS, ammonium sulfate]
herbicidal activity, Amaranth (AMASS Amaranth; [1]): 75.3%
herbicidal activity, Amaranth (AMASS Amaranth; [2]): 91%
herbicidal activity, Amaranth (AMASS Amaranth; [3]): 79.3%
herbicidal activity, Amaranth (AMASS Amaranth; [4]): 96%
herbicidal activity, Sunflower (HELSS Sunflower; [1]): 81%
herbicidal activity, Sunflower (HELSS Sunflower; [2]): 94.3%
herbicidal activity, Sunflower (HELSS Sunflower; [3]): 91.7%
herbicidal activity, Sunflower (HELSS Sunflower; [4]): 95%
herbicidal activity, Flax (LIUSS Flax; [1]): 74.3%
herbicidal activity, Flax (LIUSS Flax; [2]): 88.3%
herbicidal activity, Flax (LIUSS Flax; [3]): 76%
herbicidal activity, Flax (LIUSS Flax; [4]): 90%
herbicidal activity, Corn (ZEAMX Corn; [1]): 95%
herbicidal activity, Corn (ZEAMX Corn; [2]): 96.3%
herbicidal activity, Corn (ZEAMX Corn; [3]): 95%
herbicidal activity, Corn (ZEAMX Corn; [4]): 97%
